In patent US20260041620A1, “NOVEL AMINO ACID BASED SALTS, COMPOSITIONS AND METHODS FOR TREATING SKIN AND IMPROVING SKIN REJUVENATION AND LONGEVITY” (Sytheon Ltd, priority 2023, published 2026):
Where two headings read alike, the source gives them in different places.

Assays:
FABP-3 = biological target: T1, FABP-3 (Homo sapiens, UniProt P05413); test: FABP-3 ELISA inhibitory assay; assay type: biochemical
T1 construct: purchased Neovateinbio PT-452

FABP-5 = biological target: T2, FABP-5 (Homo sapiens, UniProt Q01469); test: FABP-5 ELISA inhibitory assay; assay type: biochemical
T2 construct: purchased Raybiotech 268-10276-1

MAGL = biological target: T3, MAGL (Homo sapiens, UniProt Q99685); test: MAGL inhibitory assay; assay type: biochemical
T3 construct: purchased Cayman 10007812
T3 sequence (Q99685 1-303): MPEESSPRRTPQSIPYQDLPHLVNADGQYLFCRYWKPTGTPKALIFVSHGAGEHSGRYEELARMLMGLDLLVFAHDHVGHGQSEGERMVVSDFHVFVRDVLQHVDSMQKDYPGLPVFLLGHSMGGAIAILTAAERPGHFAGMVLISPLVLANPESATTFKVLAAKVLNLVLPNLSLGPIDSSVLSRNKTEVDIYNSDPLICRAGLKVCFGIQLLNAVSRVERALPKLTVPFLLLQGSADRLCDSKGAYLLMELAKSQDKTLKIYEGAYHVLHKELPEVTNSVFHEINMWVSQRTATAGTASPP
Description: Each study was performed in duplicate and the results averaged.
The final concentration in each well was 10 μl of sample, 5.6 μM MAGL (Cayman Catalog #10007812) and 23.6 μM 2-Arachidonoyl Glycerol (Cayman catalog #62160).

HDAC6 = biological target: T4, HDAC6 (Homo sapiens, UniProt Q9UBN7)
T4 sequence (Q9UBN7 1-1215): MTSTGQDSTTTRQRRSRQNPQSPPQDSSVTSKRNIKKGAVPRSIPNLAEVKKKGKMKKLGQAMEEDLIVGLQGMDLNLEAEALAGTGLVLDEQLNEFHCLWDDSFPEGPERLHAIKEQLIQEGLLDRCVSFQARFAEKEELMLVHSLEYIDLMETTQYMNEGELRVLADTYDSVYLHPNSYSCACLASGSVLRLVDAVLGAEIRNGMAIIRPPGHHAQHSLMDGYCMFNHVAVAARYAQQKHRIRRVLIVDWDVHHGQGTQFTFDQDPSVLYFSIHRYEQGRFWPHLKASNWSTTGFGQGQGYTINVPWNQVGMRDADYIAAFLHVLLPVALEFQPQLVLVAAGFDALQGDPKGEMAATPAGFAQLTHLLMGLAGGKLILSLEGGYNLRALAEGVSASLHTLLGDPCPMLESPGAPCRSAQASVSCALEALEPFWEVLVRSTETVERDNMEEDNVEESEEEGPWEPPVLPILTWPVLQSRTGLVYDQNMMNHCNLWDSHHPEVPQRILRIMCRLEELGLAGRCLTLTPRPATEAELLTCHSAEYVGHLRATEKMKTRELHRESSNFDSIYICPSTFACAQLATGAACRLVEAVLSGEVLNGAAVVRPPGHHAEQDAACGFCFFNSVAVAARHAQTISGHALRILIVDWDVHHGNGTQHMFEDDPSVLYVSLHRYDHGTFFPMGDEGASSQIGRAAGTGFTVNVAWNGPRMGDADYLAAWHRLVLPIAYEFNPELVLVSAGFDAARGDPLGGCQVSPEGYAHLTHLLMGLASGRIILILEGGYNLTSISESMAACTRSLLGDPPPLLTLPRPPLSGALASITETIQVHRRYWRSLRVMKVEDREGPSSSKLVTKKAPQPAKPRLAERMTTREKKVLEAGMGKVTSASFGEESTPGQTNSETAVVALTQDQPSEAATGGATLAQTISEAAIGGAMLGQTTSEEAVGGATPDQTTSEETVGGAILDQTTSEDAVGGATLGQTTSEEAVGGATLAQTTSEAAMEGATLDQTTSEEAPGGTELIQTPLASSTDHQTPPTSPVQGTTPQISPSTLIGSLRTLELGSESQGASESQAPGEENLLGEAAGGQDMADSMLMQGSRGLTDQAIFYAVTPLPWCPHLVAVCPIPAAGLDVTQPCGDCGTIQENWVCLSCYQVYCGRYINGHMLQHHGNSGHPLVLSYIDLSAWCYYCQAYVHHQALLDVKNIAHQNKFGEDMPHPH
Description: (§1) Test materials were stored at room temperature and stock solutions were prepared at 20 mg/ml in DMSO. Further dilutions were made in sterile distilled water immediately before being added to the reaction mixture containing a substrate, and the reaction was triggered by the addition of purified HDAC enzymes, Double distilled water was the negative control and trichostatin (1.5 ug/ml) was used as a positive control for validation of each study. The test procedure was as directed in the assay kits. The products of the reactions were measured by fluorometry at ex/em 350/450 nm using multi-well plate fluorometer Cytofluor 4000 (Applied Biosystem, Foster City, CA) or using SpectraMax i3× Multi-Mode Detection Platform from Molecular Devices (Sunnyvale, CA).
(§2) Statistical significance was assessed with a two-tail Student test. Deviations of ≤20% as compared to water control with p values below 0.05 were considered statistically significant.

HDAC 9 = HDAC 9 (Homo sapiens, UniProt Q9UKV0)
Description: as §1, §2

HDAC10 = biological target: T5, HDAC10 (Homo sapiens, UniProt Q969S8)
T5 sequence (Q969S8 1-669): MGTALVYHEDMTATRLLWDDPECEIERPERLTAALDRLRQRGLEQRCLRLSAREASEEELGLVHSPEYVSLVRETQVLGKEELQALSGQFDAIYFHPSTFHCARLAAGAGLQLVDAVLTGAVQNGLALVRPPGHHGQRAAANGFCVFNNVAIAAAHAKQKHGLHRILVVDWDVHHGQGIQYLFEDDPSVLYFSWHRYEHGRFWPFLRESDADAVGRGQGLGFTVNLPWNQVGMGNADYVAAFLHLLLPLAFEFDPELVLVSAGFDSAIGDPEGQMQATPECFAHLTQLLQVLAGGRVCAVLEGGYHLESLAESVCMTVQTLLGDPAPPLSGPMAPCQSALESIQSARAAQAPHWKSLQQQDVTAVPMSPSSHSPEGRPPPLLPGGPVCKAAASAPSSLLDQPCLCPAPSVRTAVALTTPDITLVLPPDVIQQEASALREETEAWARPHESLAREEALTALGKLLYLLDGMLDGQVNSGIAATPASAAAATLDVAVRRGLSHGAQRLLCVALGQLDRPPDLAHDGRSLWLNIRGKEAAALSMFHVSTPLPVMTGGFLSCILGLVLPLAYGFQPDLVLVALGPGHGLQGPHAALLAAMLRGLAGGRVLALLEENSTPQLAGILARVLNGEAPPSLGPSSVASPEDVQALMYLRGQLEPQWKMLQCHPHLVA
Description: as §1, §2

HDAC 4 = HDAC 4 (Homo sapiens, UniProt P56524); test: HDAC 4 fluorogenic assay kit
Sequence of HDAC 4 (P56524 whole entry): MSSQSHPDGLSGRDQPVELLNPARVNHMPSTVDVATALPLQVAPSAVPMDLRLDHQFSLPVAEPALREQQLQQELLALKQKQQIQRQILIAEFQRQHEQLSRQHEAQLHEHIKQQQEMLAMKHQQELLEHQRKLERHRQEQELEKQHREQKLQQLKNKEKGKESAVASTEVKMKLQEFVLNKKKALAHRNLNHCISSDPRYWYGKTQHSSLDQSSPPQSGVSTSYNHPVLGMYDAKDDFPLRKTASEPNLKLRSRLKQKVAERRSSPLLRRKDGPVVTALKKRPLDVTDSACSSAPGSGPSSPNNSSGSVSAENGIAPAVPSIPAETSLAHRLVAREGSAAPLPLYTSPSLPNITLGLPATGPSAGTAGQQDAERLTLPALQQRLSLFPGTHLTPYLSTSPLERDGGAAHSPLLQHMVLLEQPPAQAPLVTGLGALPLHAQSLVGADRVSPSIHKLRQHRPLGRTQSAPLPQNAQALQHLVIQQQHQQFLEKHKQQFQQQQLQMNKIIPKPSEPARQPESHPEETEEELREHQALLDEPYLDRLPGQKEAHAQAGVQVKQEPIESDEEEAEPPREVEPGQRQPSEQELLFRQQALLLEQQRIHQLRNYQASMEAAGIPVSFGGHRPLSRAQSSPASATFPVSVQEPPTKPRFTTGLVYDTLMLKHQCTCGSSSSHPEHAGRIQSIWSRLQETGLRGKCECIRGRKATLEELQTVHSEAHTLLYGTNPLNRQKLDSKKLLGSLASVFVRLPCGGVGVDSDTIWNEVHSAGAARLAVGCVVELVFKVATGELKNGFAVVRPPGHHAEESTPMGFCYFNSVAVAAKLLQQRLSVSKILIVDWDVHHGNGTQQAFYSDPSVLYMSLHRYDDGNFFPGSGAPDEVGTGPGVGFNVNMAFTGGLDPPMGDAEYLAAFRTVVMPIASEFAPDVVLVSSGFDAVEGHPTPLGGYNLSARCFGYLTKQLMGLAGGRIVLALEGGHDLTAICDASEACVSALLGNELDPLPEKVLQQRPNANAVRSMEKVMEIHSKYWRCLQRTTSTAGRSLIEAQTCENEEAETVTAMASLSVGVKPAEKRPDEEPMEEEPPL
Description: as §1, §2

Sequence of HDAC 9 (Q9UKV0 whole entry): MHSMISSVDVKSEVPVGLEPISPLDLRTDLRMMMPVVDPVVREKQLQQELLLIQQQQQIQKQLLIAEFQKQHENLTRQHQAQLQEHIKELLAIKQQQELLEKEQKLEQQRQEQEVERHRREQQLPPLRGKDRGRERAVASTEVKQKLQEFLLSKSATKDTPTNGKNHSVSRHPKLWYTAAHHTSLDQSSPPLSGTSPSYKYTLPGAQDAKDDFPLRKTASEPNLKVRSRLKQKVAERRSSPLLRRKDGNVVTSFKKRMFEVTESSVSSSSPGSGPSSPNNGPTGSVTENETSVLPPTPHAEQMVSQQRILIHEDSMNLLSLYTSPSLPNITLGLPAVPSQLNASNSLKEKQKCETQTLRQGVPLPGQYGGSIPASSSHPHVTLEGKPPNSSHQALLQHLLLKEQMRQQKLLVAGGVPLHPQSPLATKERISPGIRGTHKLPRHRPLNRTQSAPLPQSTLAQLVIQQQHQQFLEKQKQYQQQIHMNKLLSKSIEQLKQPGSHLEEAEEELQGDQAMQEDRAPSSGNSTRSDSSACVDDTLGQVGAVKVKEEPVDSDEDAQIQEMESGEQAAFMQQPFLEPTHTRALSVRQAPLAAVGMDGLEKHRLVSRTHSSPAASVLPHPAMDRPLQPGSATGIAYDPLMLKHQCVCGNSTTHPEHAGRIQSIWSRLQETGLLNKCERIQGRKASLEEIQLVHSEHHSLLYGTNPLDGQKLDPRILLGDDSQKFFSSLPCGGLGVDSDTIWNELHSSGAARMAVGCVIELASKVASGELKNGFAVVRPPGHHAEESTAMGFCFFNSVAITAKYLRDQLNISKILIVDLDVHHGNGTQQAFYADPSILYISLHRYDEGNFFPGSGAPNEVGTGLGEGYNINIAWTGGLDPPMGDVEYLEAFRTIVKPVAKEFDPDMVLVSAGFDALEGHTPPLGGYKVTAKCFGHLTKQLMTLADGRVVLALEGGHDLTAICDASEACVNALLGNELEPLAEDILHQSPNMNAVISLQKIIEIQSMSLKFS
T2 sequence (Q01469 whole entry): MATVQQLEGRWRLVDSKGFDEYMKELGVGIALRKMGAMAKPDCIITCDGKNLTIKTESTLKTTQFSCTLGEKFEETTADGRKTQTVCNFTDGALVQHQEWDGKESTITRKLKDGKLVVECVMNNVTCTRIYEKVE
T1 sequence (P05413 whole entry): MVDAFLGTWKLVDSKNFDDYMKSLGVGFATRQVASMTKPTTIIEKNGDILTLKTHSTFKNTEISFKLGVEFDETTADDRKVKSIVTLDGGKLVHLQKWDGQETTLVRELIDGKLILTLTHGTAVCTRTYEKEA

| Compound | FABP-3 IC50 (FABP-3) [µg/mL] | FABP-5 IC50 (FABP-5) | MAGL IC50 (MAGL) [µg/mL] | HDAC 6 activity, % of water-treated controls (HDAC6; 5 ug/ml) [%] | HDAC 6 activity, % of water-treated controls (HDAC6; 25 ug/ml) [%] | HDAC 6 activity, % of water-treated controls (HDAC6; 50 ug/ml) [%] | HDAC 6 activity, % of water-treated controls (HDAC6; 100 ug/ml) [%] | HDAC 6 activity, % of water-treated controls (HDAC6; 200 ug/ml) [%] | HDAC 9 activity, % of water-treated controls (HDAC 9; 5 ug/ml) [%] | HDAC 9 activity, % of water-treated controls (HDAC 9; 25 ug/ml) [%] | HDAC 9 activity, % of water-treated controls (HDAC 9; 50 ug/ml) [%] | HDAC 9 activity, % of water-treated controls (HDAC 9; 100 ug/ml) [%] | HDAC 9 activity, % of water-treated controls (HDAC 9; 200 ug/ml) [%] | HDAC 10 activity, % of water-treated controls (HDAC10; 25 ug/ml) [%] | HDAC 10 activity, % of water-treated controls (HDAC10; 50 ug/ml) [%] | HDAC 10 activity, % of water-treated controls (HDAC10; 100 ug/ml) [%] | HDAC 10 activity, % of water-treated controls (HDAC10; 200 ug/ml) [%] | HDAC 4 activity, % of water-treated controls (HDAC 4; 25 ug/ml) [%] | HDAC 4 activity, % of water-treated controls (HDAC 4; 50 ug/ml) [%] | HDAC 4 activity, % of water-treated controls (HDAC 4; 100 ug/ml) [%] | also measured |
| --- | --- | --- | --- | --- | --- | --- | --- | --- | --- | --- | --- | --- | --- | --- | --- | --- | --- | --- | --- | --- | --- |
| CCCC(=O)NCCCC[C@H](NC(=O)CCC)C(=O)[O-].CCCC(=O)NCCCC[C@H](NC(=O)CCC)C(=O)[O-].[Zn+2] [Zn di-(di-n-butyryl lysinate), Zinc di-(di-n-butyryl lysinate)] | 242.4 | 644 µg/mL | 88.8 | 25 | 18 | 19 | 21 | 19 | 39 | 29 | 25 | 19 | 20 | 15 | 13 | 9 | 7 | 120 | 60 | 39 | HDAC 10 activity, % of water-treated controls (HDAC10; 5 ug/ml): 21% |
| CCCC(=O)N[C@@H](CC(C)C)C(=O)[O-].CCCC(=O)N[C@@H](CC(C)C)C(=O)[O-].[Zn+2] [Zn di-(n-butyryl leucinate), Zinc di-(n-butyryl leucinate)] | 630.9 | 390.5 µg/mL | 88.3 | 20 | 20 | 21 | 20 | 17 | 15 | 49 | 44 | 30 | 22 | 13 | 10 | 8 | 6 |  |  |  | HDAC 10 activity, % of water-treated controls (HDAC10; 5 ug/ml): 21% |
| CCCC(=O)NCCCCC(NC(=O)CCC)C(=O)[O-].CCCC(=O)NCCCCC(NC(=O)CCC)C(=O)[O-].[Ca+2] (centres unmarked) [Ca di-(di-n-butyryl lysinate), calcium di-(di-n-butyryl lysinate)] | 188.6 | 786 µg/mL | 37.6 | 105 | 97 | 124 | 128 | 134 | 212 | 178 | 242 | 289 | 258 | 105 | 103 | 104 | 90 |  |  |  |  |
| CCCC(=O)[O-].[Na+] [Sodium butyrate, reference compound] |  |  |  |  |  | 107 | 110 | 92 |  |  | 55 | 53 | 57 |  | 100 | 103 | 93 | 93 | 96 | 96 | IC50 (MAGL): 5.5 mM; HDAC 6 activity, % of water-treated controls (HDAC6; 400 ug/ml): 102%; HDAC 9 activity, % of water-treated controls (HDAC 9; 400 ug/ml): 58%; HDAC 10 activity, % of water-treated controls (HDAC10; 400 ug/ml): 61% |
| Zinc Di-lysinate [Zn dilysinate] | 255.2 | 3,014 μg/ml | 207.0 | 22 | 16 | 17 | 14 | 8 | 21 | 18 | 15 | 15 | 16 | 19 | 12 | 9 | 6 | 100 | 92 | 63 |  |
